# Assay results as given in ChEMBL document CHEMBL5214938, “Design, synthesis and biological evaluation of pteridine-7(8H)-one derivatives as potent and selective CDK4/6 inhibitors” (Bioorg Med Chem Lett, 2022).
# Tests used:
# [1] = biological target: Cyclin-dependent kinase 4/cyclin D1 (Homo sapiens, UniProt P11802); assay: Inhibition of CDK4/cyclin D1 (unknown origin); type: protein-complex assay
# CDK6/cyclin D1 = CDK6/cyclin D1 (Homo sapiens, UniProt Q00534); assay: Inhibition of CDK6/cyclin D1 (unknown origin); type: protein-complex assay
# Sequence of CDK6/cyclin D1 (P24385 whole entry): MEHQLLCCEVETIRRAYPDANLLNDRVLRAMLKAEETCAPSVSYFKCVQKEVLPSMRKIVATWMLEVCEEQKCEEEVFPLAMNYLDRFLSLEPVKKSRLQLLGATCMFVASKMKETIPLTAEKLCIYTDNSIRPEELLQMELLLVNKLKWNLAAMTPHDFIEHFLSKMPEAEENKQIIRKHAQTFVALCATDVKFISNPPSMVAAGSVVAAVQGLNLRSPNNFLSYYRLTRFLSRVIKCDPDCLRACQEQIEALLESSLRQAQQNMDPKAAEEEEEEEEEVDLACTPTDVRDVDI
# Sequence of CDK6/cyclin D1 (Q00534 whole entry): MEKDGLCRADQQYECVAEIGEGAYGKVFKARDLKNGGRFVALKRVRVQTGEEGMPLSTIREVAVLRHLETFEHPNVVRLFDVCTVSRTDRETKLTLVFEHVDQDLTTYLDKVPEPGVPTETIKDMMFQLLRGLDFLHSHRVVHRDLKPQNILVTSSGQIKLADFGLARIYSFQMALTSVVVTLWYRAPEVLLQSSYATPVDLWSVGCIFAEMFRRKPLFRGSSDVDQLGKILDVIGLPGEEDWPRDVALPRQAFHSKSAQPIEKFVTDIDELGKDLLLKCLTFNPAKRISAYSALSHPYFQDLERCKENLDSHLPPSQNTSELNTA
# [2] = Inhibition of CDK1/cyclin B (unknown origin); design: species or system Homo sapiens
# [3] = biological target: Cyclin-dependent kinase 2/cyclin E1 (Homo sapiens, UniProt P24941); assay: Inhibition of CDK2/cyclin E1 (unknown origin); type: protein-complex assay
# CDK7/Cyclin H/MNAT1 = CDK7/Cyclin H/MNAT1 (Homo sapiens, UniProt P50613); assay: Inhibition of CDK7/cyclin H/MAT1 (unknown origin); type: protein-complex assay
# Sequence of CDK7/Cyclin H/MNAT1 (P51946 whole entry): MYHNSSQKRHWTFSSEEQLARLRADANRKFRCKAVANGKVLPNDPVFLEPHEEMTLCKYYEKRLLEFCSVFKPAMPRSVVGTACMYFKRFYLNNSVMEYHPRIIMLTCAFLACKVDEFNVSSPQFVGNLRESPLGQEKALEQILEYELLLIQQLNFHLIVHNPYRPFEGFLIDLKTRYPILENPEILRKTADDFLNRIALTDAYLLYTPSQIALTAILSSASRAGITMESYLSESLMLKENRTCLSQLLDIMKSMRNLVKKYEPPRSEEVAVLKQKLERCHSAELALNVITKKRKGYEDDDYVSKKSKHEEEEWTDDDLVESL
# Sequence of CDK7/Cyclin H/MNAT1 (P50613 whole entry): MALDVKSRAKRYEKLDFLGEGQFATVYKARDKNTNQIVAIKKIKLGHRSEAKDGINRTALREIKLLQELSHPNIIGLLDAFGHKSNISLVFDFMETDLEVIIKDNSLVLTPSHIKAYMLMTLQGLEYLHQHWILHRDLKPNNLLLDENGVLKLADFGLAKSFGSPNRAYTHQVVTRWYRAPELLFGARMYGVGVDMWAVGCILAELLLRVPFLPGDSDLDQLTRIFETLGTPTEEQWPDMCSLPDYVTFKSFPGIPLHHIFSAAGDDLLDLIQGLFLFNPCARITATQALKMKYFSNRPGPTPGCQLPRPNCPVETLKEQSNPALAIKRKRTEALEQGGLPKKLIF
# Sequence of CDK7/Cyclin H/MNAT1 (P51948 whole entry, further chain): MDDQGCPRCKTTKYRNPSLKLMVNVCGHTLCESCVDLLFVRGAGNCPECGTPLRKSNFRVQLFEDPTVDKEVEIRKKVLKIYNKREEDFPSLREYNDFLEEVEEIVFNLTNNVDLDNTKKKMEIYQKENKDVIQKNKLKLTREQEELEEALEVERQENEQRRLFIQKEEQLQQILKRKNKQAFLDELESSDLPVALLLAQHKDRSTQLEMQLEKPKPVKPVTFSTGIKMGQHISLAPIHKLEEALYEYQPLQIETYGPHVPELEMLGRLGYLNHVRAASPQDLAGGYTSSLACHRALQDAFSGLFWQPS
# CDK9/cyclin T1 = CDK9/cyclin T1 (Homo sapiens, UniProt P50750); assay: Inhibition of CDK9/cyclin T1 (unknown origin); type: protein-complex assay
# Sequence of CDK9/cyclin T1 (O60563 whole entry): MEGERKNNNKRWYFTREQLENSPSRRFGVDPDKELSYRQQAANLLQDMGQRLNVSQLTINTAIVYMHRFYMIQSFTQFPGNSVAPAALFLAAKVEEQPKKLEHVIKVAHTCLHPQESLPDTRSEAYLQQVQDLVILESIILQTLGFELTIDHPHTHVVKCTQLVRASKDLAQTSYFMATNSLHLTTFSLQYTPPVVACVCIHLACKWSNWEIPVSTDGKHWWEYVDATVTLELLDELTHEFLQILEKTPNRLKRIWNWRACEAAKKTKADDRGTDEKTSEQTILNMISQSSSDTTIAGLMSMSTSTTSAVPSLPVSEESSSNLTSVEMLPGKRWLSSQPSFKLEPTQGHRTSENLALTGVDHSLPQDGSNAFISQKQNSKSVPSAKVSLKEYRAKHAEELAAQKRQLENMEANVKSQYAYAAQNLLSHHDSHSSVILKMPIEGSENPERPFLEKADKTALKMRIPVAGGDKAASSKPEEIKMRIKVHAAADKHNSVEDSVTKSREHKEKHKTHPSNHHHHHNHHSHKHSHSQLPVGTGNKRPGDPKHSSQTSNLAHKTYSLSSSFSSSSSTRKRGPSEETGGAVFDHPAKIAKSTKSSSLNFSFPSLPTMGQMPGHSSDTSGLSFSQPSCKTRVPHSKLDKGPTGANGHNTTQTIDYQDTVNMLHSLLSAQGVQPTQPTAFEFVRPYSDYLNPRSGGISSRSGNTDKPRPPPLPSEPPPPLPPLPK
# Sequence of CDK9/cyclin T1 (P50750 whole entry): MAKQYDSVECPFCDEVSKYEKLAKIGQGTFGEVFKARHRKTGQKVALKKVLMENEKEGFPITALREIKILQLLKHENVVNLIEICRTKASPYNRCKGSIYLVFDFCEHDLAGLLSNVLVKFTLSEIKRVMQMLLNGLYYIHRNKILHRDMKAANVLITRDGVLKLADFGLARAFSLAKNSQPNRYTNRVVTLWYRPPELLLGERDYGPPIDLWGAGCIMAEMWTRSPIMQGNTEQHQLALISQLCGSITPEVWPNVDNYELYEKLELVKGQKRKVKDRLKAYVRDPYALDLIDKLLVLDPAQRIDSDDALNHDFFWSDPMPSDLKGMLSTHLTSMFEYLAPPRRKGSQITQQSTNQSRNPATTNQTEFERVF
# MDA-MB-231 [4] = assay: Antiproliferative activity against human MDA-MB-231 cells assessed as growth inhibition by CCK-8 assay; type: functional, cell-based
# HCT-116 [5] = assay: Antiproliferative activity against human HCT-116 cells assessed as growth inhibition by CCK-8 assay; type: functional, cell-based
# HT-29 [6] = assay: Antiproliferative activity against human HT-29 cells assessed as growth inhibition by CCK-8 assay; type: functional, cell-based
# A549 = assay: Antiproliferative activity against human A549 cells assessed as growth inhibition by CCK-8 assay; type: functional, cell-based
# MDA-MB-231 [7] = assay: Induction of apoptosis in human MDA-MB-231 cells assessed as necrotic cells at 1 uM by flow cytometry (Rvb=4.37%); type: functional
# MDA-MB-231 [8] = assay: Induction of apoptosis in human MDA-MB-231 cells assessed as early apoptotic cells at 1 uM by flow cytometry (Rvb=2.93%); type: functional
# MDA-MB-231 [9] = assay: Induction of apoptosis in human MDA-MB-231 cells assessed as late apoptotic cells at 1 uM by flow cytometry (Rvb=0.72%); type: functional
# MDA-MB-231 [10] = assay: Induction of apoptosis in human MDA-MB-231 cells assessed as viable cells at 1 uM by flow cytometry (Rvb=92.08%); type: functional; conditions: read-out: Activity
# MDA-MB-231 [11] = assay: Induction of apoptosis in human MDA-MB-231 cells assessed as necrotic cells at 5 uM by flow cytometry (Rvb=4.37%); type: functional
# MDA-MB-231 [12] = assay: Induction of apoptosis in human MDA-MB-231 cells assessed as early apoptotic cells at 5 uM by flow cytometry (Rvb=2.93%); type: functional
# MDA-MB-231 [13] = assay: Induction of apoptosis in human MDA-MB-231 cells assessed as late apoptotic cells at 5 uM by flow cytometry (Rvb=0.72%); type: functional
# MDA-MB-231 [14] = assay: Induction of apoptosis in human MDA-MB-231 cells assessed as viable cells at 5 uM by flow cytometry (Rvb=92.08%); type: functional; conditions: read-out: Activity
# HCT-116 [15] = assay: Induction of apoptosis in human HCT-116 cells assessed as necrotic cells at 1 uM by flow cytometry (Rvb=1.57%); type: functional
# HCT-116 [16] = assay: Induction of apoptosis in human HCT-116 cells assessed as early apoptotic cells at 1 uM by flow cytometry (Rvb=6.90%); type: functional
# HCT-116 [17] = assay: Induction of apoptosis in human HCT-116 cells assessed as late apoptotic cells at 1 uM by flow cytometry (Rvb=4.92%); type: functional
# HCT-116 [18] = assay: Induction of apoptosis in human HCT-116 cells assessed as viable cells at 1 uM by flow cytometry (Rvb=86.61%); type: functional; conditions: read-out: Activity
# HCT-116 [19] = assay: Induction of apoptosis in human HCT-116 cells assessed as necrotic cells at 5 uM by flow cytometry (Rvb=1.57%); type: functional
# HCT-116 [20] = assay: Induction of apoptosis in human HCT-116 cells assessed as early apoptotic cells at 5 uM by flow cytometry (Rvb=6.90%); type: functional
# HCT-116 [21] = assay: Induction of apoptosis in human HCT-116 cells assessed as late apoptotic cells at 5 uM by flow cytometry (Rvb=4.92%); type: functional
# HCT-116 [22] = assay: Induction of apoptosis in human HCT-116 cells assessed as viable cells at 5 uM by flow cytometry (Rvb=86.61%); type: functional; conditions: read-out: Activity
# HT-29 [23] = assay: Induction of apoptosis in human HT-29 cells assessed as necrotic cells at 1 uM by flow cytometry (Rvb=2.35%); type: functional
# HT-29 [24] = assay: Induction of apoptosis in human HT-29 cells assessed as early apoptotic cells at 1 uM by flow cytometry (Rvb=8.68%); type: functional
# HT-29 [25] = assay: Induction of apoptosis in human HT-29 cells assessed as late apoptotic cells at 1 uM by flow cytometry (Rvb=5.03%); type: functional
# HT-29 [26] = assay: Induction of apoptosis in human HT-29 cells assessed as viable cells at 1 uM by flow cytometry (Rvb=83.94%); type: functional; conditions: read-out: Activity
# HT-29 [27] = assay: Induction of apoptosis in human HT-29 cells assessed as necrotic cells at 5 uM by flow cytometry (Rvb=2.35%); type: functional
# HT-29 [28] = assay: Induction of apoptosis in human HT-29 cells assessed as early apoptotic cells at 5 uM by flow cytometry (Rvb=8.68%); type: functional
# HT-29 [29] = assay: Induction of apoptosis in human HT-29 cells assessed as late apoptotic cells at 5 uM by flow cytometry (Rvb=5.03%); type: functional
# HT-29 [30] = assay: Induction of apoptosis in human HT-29 cells assessed as viable cells at 5 uM by flow cytometry (Rvb=83.94%); type: functional; conditions: read-out: Activity
# Sequence of Cyclin-dependent kinase 4/cyclin D1 (P11802 whole entry): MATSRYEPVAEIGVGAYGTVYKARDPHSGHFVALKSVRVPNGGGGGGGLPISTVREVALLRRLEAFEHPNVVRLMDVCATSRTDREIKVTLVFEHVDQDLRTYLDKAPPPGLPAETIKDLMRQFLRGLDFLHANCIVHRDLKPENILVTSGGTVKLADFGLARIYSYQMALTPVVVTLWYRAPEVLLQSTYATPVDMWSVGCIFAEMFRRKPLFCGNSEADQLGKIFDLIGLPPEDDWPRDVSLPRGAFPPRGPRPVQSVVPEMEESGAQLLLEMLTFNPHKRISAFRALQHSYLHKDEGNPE
# Sequence of Cyclin-dependent kinase 4/cyclin D1 (P24385 whole entry, further chain): as the sequence (P24385 whole entry) above
smiles,measurement,setting,value
CC(=O)c1nc2cnc(Nc3ccc(N4CCCC4)cc3)nc2n(C2CCCC2)c1=O,IC50,[1],368 nM
same,IC50,CDK6/cyclin D1,> 10000 nM
O=c1c(-c2ccco2)nc2cnc(Nc3ccc(N4CCOCC4)cc3)nc2n1C1CCCC1,IC50,[1],> 10000 nM
same,IC50,CDK6/cyclin D1,> 10000 nM
CC(=O)c1nc2cnc(Nc3ccc(N4CCN(C)CC4)cc3)nc2n(C2CCCC2)c1=O,IC50,[1],36.6 nM
same,IC50,CDK6/cyclin D1,53.4 nM
same,IC50,[2],> 10000 nM
same,IC50,[3],> 10000 nM
same,IC50,CDK7/Cyclin H/MNAT1,> 10000 nM
same,IC50,CDK9/cyclin T1,> 10000 nM
same,IC50,MDA-MB-231 [4],2200 nM
same,IC50,HCT-116 [5],2400 nM
same,IC50,HT-29 [6],1500 nM
same,IC50,A549,3600 nM
COc1cc(N2CCN(C)CC2)ccc1Nc1ncc2nc(C(C)=O)c(=O)n(C3CCCC3)c2n1,IC50,[1],4480 nM
same,IC50,CDK6/cyclin D1,4740 nM
CC(=O)c1nc2cnc(Nc3ccc(N4CCN(C5CCCC5)CC4)cc3)nc2n(C2CCCC2)c1=O,IC50,[1],36.3 nM
same,IC50,CDK6/cyclin D1,138 nM
CC(=O)c1nc2cnc(Nc3ccc(N4CCOCC4)cc3)nc2n(C2CCCC2)c1=O,IC50,[1],74.4 nM
same,IC50,CDK6/cyclin D1,168 nM
CCN1CCN(c2ccc(Nc3ncc4nc(C(C)=O)c(=O)n(C5CCCC5)c4n3)cc2)CC1,IC50,[1],16.7 nM
same,IC50,CDK6/cyclin D1,30.5 nM
same,IC50,[2],> 10000 nM
same,IC50,[3],7940 nM
same,IC50,CDK7/Cyclin H/MNAT1,> 10000 nM
same,IC50,CDK9/cyclin T1,8040 nM
same,IC50,MDA-MB-231 [4],1900 nM
same,IC50,HCT-116 [5],1900 nM
same,IC50,HT-29 [6],4000 nM
same,IC50,A549,9200 nM
same,Activity,MDA-MB-231 [7],4.16%
same,Activity,MDA-MB-231 [8],3.21%
same,Activity,MDA-MB-231 [9],0.86%
same,viability at 1 µM,MDA-MB-231 [10],91.8%
same,Activity,MDA-MB-231 [11],3.55%
same,Activity,MDA-MB-231 [12],6.67%
same,Activity,MDA-MB-231 [13],1.75%
same,viability at 5 µM,MDA-MB-231 [14],88%
same,Activity,HCT-116 [15],0.57%
same,Activity,HCT-116 [16],9.54%
same,Activity,HCT-116 [17],8.42%
same,viability at 1 µM,HCT-116 [18],81.5%
same,Activity,HCT-116 [19],2.16%
same,Activity,HCT-116 [20],14.39%
same,Activity,HCT-116 [21],13.39%
same,viability at 5 µM,HCT-116 [22],70.2%
same,Activity,HT-29 [23],1.21%
same,Activity,HT-29 [24],15.39%
same,Activity,HT-29 [25],12.67%
same,viability at 1 µM,HT-29 [26],70.7%
same,Activity,HT-29 [27],0.99%
same,Activity,HT-29 [28],14.86%
same,Activity,HT-29 [29],15.42%
same,viability at 5 µM,HT-29 [30],68.7%
CC(=O)c1c(C)c2cnc(Nc3ccc(N4CCNCC4)cn3)nc2n(C2CCCC2)c1=O [PALBOCICLIB],IC50,HCT-116 [5],> 10000 nM
same,IC50,HT-29 [6],9300 nM
same,IC50,A549,> 10000 nM
CCN1CCN(c2ccc(Nc3ncc4nc(-c5ccco5)c(=O)n(C5CCCC5)c4n3)cc2)CC1,IC50,[1],236 nM
same,IC50,CDK6/cyclin D1,940 nM
CCN1CCN(c2ccc(Nc3ncc4nc(C(C)=O)c(=O)n(C5CCCC5)c4n3)c(N)c2)CC1,IC50,[1],7890 nM
same,IC50,CDK6/cyclin D1,7080 nM
CC(=O)c1nc2cnc(Nc3ccc(N4CCC(N5CCN(C)CC5)CC4)cc3)nc2n(C2CCCC2)c1=O,IC50,[1],30.1 nM
same,IC50,CDK6/cyclin D1,48 nM
CN[C@@H]1C[C@H]2O[C@@](C)([C@@H]1OC)n1c3ccccc3c3c4c(c5c6ccccc6n2c5c31)C(=O)NC4 [STAUROSPORINE],IC50,[2],6.6 nM
CCN1CCN(c2ccc(Nc3ncc4nc(C(C)=O)c(=O)n(C5CCCC5)c4n3)c(CO)c2)CC1,IC50,[1],110 nM
same,IC50,CDK6/cyclin D1,1210 nM
CC(=O)c1nc2cnc(Nc3ccc(N4CCCCC4)cc3)nc2n(C2CCCC2)c1=O,IC50,[1],64.9 nM
same,IC50,CDK6/cyclin D1,564 nM
